Entries after “also recorded” stand apart in the source; their conditions may differ. Where a SMILES comes first, the peptide text is derived from it. Bridges are numbered along the chain shown (N, C = ends). [ ]: non-standard residue; d: D form. The star is where a group is joined. C16 diacid = O=C(O)CCCCCCCCCCCCCCC(=O)*; AEEA = NCCOCCOCC(=O)O
Experiment: In vitro metabolic stability in fresh blood
Format: in vitro ADME
Details: 37° C.; mouse, rat and human blood
Description: Fresh blood from mouse (CD-1) and rat (Wistar) was collected from lab animals. Human blood was collected from healthy donors at local hospital or acquired from commercial vendor (BioIVT). Blood from non-human primates (Cynomolgus macaque) was acquired from commercial vendor (BioTVT).
For mouse, rat and human blood, 5.0 μg/mL of tested agent (except Agent 1 in human blood) was diluted from stock solution in DMSO to a final DMSO concentration of 0.5% and incubated in 1000 μL of blood at 37° C., in duplicate. At 0, 5, 15, 30, and 60 minutes, 180 μL was sampled and centrifuged at 2000 g for 1 min, 80 μL supernatant was taken and diluted 1:1 with water followed by precipitation with acetonitrile containing 5% TFA (internal standard 100 nM leucine enkephalin+Glu1 fibrinopeptide B). The obtained supernatant 60 μL was further diluted with 30 μL 20% DMSO in ultra-pure water and submitted for immediate analysis by LC-MS/MS. The controls were 1 μM propantheline bromide (mouse, human) or 1 μM enalapril (rat).
Incubation of Agent 1 in blood from human and monkey was performed in a similar manner. A 25 μM solution of Agent 1 was prepared with 5% DMSO and 22.5% methanol in water. […]
The peak areas were determined against a calibration curve and the T0 sample was set to 100%. The disappearance rate (k) was calculated and the half-life for each incubation was determined (t½=ln 2/k).

CC[C@H](C)[C@H](NC(=O)[C@H](CC(N)=O)NC(=O)[C@H](CCCCN)NC(=O)[C@H](C)NC(=O)[C@H](CCCCN)NC(=O)[C@H](CCCCN)NC(=O)COCCOCCNC(=O)COCCOCCNC(=O)CCCCCCCCCCCCCCC(=O)O)C(=O)N[C@H](C(=O)N[C@@H](CC(C)C)C(=O)N[C@@H](CC(C)C)C(=O)N[C@@H](CCCCN)C(=O)NCC(=O)N[C@@H](CC(C)C)C(=O)N[C@@H](CCC(=O)O)C(=O)N[C@H](C(=O)N[C@H](C(=O)N[C@@H](CC(N)=O)C(=O)N[C@@H](CC(=O)O)C(=O)N[C@@H](Cc1c[nH]c2ccccc12)C(=O)N[C@@H](Cc1c[nH]cn1)C(=O)N[C@@H](Cc1ccccc1)C(=O)N[C@H]1CSSC[C@@H](C(N)=O)NC(=O)[C@@H](CCCNC(=N)N)NC(=O)[C@H](CCCNC(=N)N)NC(=O)[C@@H](CCCCN)NC(=O)[C@H](CCCCN)NC(=O)[C@@H](CCCNC(=N)N)NC(=O)CNC(=O)[C@@H](CCCNC(=N)N)NC(=O)[C@H](CCCNC(=N)N)NC(=O)[C@@H](CCCNC(=N)N)NC1=O)[C@@H](C)CC)C(C)C)C(C)C [Agent 1] ({C16 diacid-AEEA-AEEA}-KKAKNIVLLKGLEVINDWHFC[dR]R[dR]G[dR]K[dK]R[dR]C-NH2; disulfide 21-31)
metabolic stability in fresh blood (half-life) compared to Agent 2 and Agent 3: better stability; also recorded: considerably reduces the metabolism

Source: patent US20240350647A1, “STING SENSITIZING AGENTS” (STipe Therapeutics ApS, priority 2023, published 2024)
